# Test results as given in ChEMBL document CHEMBL1125047, “Novel glutamic acid derived cholecystokinin receptor ligands” (J Med Chem, 1990).
# Target: T1, Cholecystokinin receptor type A (Rattus norvegicus, UniProt P30551)
# T1 sequence (P30551 whole entry): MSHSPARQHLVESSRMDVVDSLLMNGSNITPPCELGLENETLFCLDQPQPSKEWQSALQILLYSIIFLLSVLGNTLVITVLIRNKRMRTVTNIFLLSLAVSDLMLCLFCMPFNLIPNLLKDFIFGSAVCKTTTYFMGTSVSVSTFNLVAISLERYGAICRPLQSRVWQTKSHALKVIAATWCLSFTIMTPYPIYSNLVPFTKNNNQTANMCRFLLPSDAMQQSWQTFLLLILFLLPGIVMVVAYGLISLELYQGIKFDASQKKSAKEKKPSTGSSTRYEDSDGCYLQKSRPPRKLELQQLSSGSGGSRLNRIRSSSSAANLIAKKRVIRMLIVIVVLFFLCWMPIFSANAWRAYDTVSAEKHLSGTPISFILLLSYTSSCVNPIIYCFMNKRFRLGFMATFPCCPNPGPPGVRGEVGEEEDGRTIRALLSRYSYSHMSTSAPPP
# Assay: Inhibition of binding of [125I]- CCK-33 to rat pancreas
row,Compound,IC50
1,"CCCCCN(CCCCC)C(=O)C(CCC(=O)O)NC(=O)Nc1cccc(OC)c1 (single isomer, unassigned; 14)",4.5 nM
2,CCCCCN(CCCCC)C(=O)C(CCC(=O)OCC)NC(=O)Nc1ccc(Cl)cc1 (stereo not given),1200 nM
3,"CCCCCN(CCCCC)C(=O)C(CCC(=O)N1CCCC1)NC(=O)Nc1cccc(OC)c1 (single isomer, unassigned; 15)",170 nM
4,"O=C(O)CCC(NC(=O)c1cc2ccccc2[nH]1)C(=O)N(C1CCCCC1)C1CCCCC1 (single isomer, unassigned)",59 nM
5,CCCCCN(CCCCC)C(=O)C(CCC(=O)N1CCCC1)NC(=O)Nc1ccc(Cl)cc1 (stereo not given),680 nM
6,CCCN(CCC)C(=O)C(CCC(=O)O)NC(=O)c1ccccc1 (stereo not given) [PROGLUMIDE],250000 nM
7,CCCCCN(CCCCC)C(=O)C(CCC(=O)OCc1ccccc1)NC(=O)Nc1ccc(Cl)cc1 (stereo not given),9300 nM
8,"CCCCCN(CCCCC)C(=O)C(CCC(=O)O)NC(=O)Nc1cccc(OC)c1 (single isomer, unassigned; 13)",540 nM
9,CCCCCN(CCCCC)C(=O)C(CCC(=O)O)NC(=O)c1ccc(Cl)c(Cl)c1 (stereo not given) [LORGLUMIDE],18 nM
10,"CCCCCN(CCCCC)C(=O)C(CCC(=O)N1CCCC1)NC(=O)Nc1cccc(OC)c1 (single isomer, unassigned; 16)",120 nM
